In PMC12661400, “Oral bioavailable ITRI-148 degrades androgen receptor variants and overcomes antiandrogen resistance in advanced prostate cancer” (Neoplasia (New York, N.Y.), 2025):
Where two headings read alike, the source gives them in different places.

How the values were obtained:
[1] = Toxicokinetic profiling in rats; type: in vivo; conditions: Sprague-Dawley, rat, plasma, po; for AUC: read-out: AUC24
Method: (§1) Repeated-dose toxicity and toxicokinetic studies
Repeated-dose oral toxicity study and toxicokinetic (TK) profiling was conducted in Sprague-Dawley rats. ITRI-148 was administered once daily using oral gavage at doses of 100, 300, 600, and 1000 mg/kg/day for 7 consecutive days, followed by a 7-day recovery period. Each dose group comprised 3 animals designated for toxicokinetic (TK) analysis and 6 animals for dose-range finding (DRF) evaluation. Clinical observations, body weights, and food consumption were monitored daily throughout the dosing and recovery periods. After the first (Day 0) and last (Day 6) dosing, serial blood samples were collected at the pose-dose time points of 0.5, 1, 2, 4, 7, 24, 48 and 72 hours for TK profiling analysis. Plasma concentrations of ITRI-148 were quantified using a validated LC-MS/MS method. Analysis was performed using a Sciex QTrap 4000 mass spectrometer coupled with a Shimadzu LC system. The chromatographic separation was achieved on a C18 reverse-phase column with a gradient elution of acetonitrile and 0.1% formic acid in water. The lower limit of quantification (LLOQ) […]
was 5 ng/mL. All samples were analyzed in duplicate. […]
(§2) All procedures were conducted in compliance with institutional animal care and use guidelines. […]
(§3) Targeting androgen receptor and the variants by an orally bioavailable
(§4) Proteolysis Targeting Chimeras compound in castration resistant prostate cancer

[2] = tested on: CWR22Rv1 cell; assay: CWR22Rv1 cell viability after 3 days of 10 μM compound (linker screen); type: cell-based; conditions: 72 h, CWR22Rv1, 10 μM compound
[3] = Repeated-dose toxicity study: mortality, body weight, tolerability; type: in vivo
Method: as §1
(§5) Repeated-dose oral toxicity study and toxicokinetic (TK) profiling was conducted in Sprague-Dawley rats. ITRI-148 was administered once daily using oral gavage at doses of 100, 300, 600, and 1000 mg/kg/day for 7 consecutive days, followed by a 7-day recovery period. Each dose group comprised 3 animals designated for toxicokinetic (TK) analysis and 6 animals for dose-range finding (DRF) evaluation. Clinical observations, body weights, and food consumption were monitored daily throughout the dosing and recovery periods. […]
All samples were analyzed in duplicate. Hematology and serum clinical chemistry analyses were performed on Day 7 (end of dosing) and Day 14 (end of recovery). At necropsy, organ weights (including heart, liver, kidney, spleen, thymus, and adrenal glands) were recorded, and gross pathological changes were examined. All procedures were conducted in compliance with institutional animal care and use guidelines. […]
as §3, §4

[4] = Repeated-dose toxicity study: hematology; type: in vivo, Sprague-Dawley rats; conditions: rats
Method: as §1, §5
All samples were analyzed in duplicate. Hematology and serum clinical chemistry analyses were performed on Day 7 (end of dosing) and Day 14 (end of recovery). […]
as §2, §3, §4

[5] = 100 mg/kg, 7-times repeated dosing 100 mg/kg
[6] = 100 mg/kg, single dosing 100 mg/kg
[7] = 300 mg/kg, 7-times repeated dosing 300 mg/kg
[8] = 300 mg/kg, single dosing 300 mg/kg
[9] = 600 mg/kg, 7-times repeated dosing 600 mg/kg
[10] = 600 mg/kg, single dosing 600 mg/kg
[11] = 1000 mg/kg, 7-times repeated dosing 1000 mg/kg
[12] = 1000 mg/kg, single dosing 1000 mg/kg
[13] = PO 100 mg/kg/day 7 days, Day 14 (recovery)
[14] = PO 300 mg/kg/day 7 days, Day 14 (recovery)
[15] = PO 600 mg/kg/day 7 days, Day 14 (recovery)
[16] = PO 1000 mg/kg/day 7 days, Day 7
[17] = PO 1000 mg/kg/day 7 days, Day 14 (recovery)

Q: Which AUC(0-t) [1, 5] does the source give for O=C1CCC(N2C(=O)c3cccc(NCC(=O)N4CCC(N5CCC(C#Cc6ccc(C7CCN(C8=Nn9c(nnc9C(F)(F)F)CC8)CC7)cc6)CC5)CC4)c3C2=O)C(=O)N1 (centres unmarked) [ITRI-148] here?
A: The AUC(0-t) was 8750 ng·h/mL.

Q: What about the Cmax [1, 5] of the same compound?
A: Its Cmax is 561 ± 62.1 ng/mL.

Q: What about the AUC [1, 5] of the same compound?
A: Its AUC is 8330 ng·h/mL.

Q: And the AUC(0-t) [1, 6]?
A: Its AUC(0-t) is 9300 ng·h/mL.

Q: What about the Cmax [1, 6] of the same compound?
A: The Cmax was 466 ± 13.6 ng/mL.

Q: What about the AUC [1, 6] of the same compound?
A: The AUC was 7670 ng·h/mL.

Q: What about the AUC(0-t) [1, 7] of the same compound?
A: Its AUC(0-t) is 20500 ng·h/mL.

Q: And the Cmax [1, 7]?
A: Its Cmax is 1050 ng/mL.

Q: And the AUC [1, 7]?
A: The AUC was 17000 ng·h/mL.

Q: And the AUC(0-t) [1, 8]?
A: The AUC(0-t) was 20100 ng·h/mL.

Q: What about the Cmax [1, 8] of the same compound?
A: The Cmax was 659 ± 184 ng/mL.

Q: What about the AUC [1, 8] of the same compound?
A: Its AUC is 13000 ng·h/mL.

Q: What about the AUC(0-t) [1, 9] of the same compound?
A: Its AUC(0-t) is 35200 ng·h/mL.

Q: What about the Cmax [1, 9] of the same compound?
A: Its Cmax is 1440 ng/mL.

Q: What about the AUC [1, 9] of the same compound?
A: The AUC was 25200 ng·h/mL.

Q: What about the AUC(0-t) [1, 10] of the same compound?
A: Its AUC(0-t) is 27100 ng·h/mL.

Q: What about the Cmax [1, 10] of the same compound?
A: The Cmax was 914 ± 296 ng/mL.

Q: And the AUC [1, 10]?
A: Its AUC is 15100 ng·h/mL.

Q: And the AUC(0-t) [1, 11]?
A: Its AUC(0-t) is 56000 ng·h/mL.

Q: What about the Cmax [1, 11] of the same compound?
A: Its Cmax is 1910 ng/mL.

Q: And the AUC [1, 11]?
A: The AUC was 36600 ng·h/mL.

Q: What about the AUC(0-t) [1, 12] of the same compound?
A: The AUC(0-t) was 40400 ng·h/mL.

Q: And the Cmax [1, 12]?
A: Its Cmax is 1000 ng/mL.

Q: And the AUC [1, 12]?
A: Its AUC is 17400 ng·h/mL.

Q: What about the viability at 10 µM [2] of the same compound?
A: The viability at 10 µM was 1.71%.

Q: And the “margin of maximum rat dose (1000 mg/kg) over the efficacious dose used in xenograft model” value ([3]; rat, in vivo)?
A: The value was > 10 fold.

Q: And the body weight loss ([3]; rats, PO 100-1000 mg/kg/day, any treatment group)?
A: The body weight loss was “No animal exhibited >10% weight loss in any treatment group”.

Q: And the HGB ([4]; PO 100 mg/kg/day 7 days, Day 7)?
A: The HGB was 20.3 ± 0.2 g/dL.

Q: And the PLT ([4]; PO 100 mg/kg/day 7 days, Day 7)?
A: Its PLT is 915 ± 368 x103 cells/µL.

Q: And the RBC ([4]; PO 100 mg/kg/day 7 days, Day 7)?
A: Its RBC is 7.51 ± 0.13 x106 cells/µL.

Q: What about the WBC ([4]; PO 100 mg/kg/day 7 days, Day 7) of the same compound?
A: Its WBC is 8.72 ± 2.37 x103 cells/µL.

Q: What about the HGB [4, 13] of the same compound?
A: The HGB was 21.9 ± 3.2 g/dL.

Q: What about the PLT [4, 13] of the same compound?
A: Its PLT is 1049 ± 231 x103 cells/µL.

Q: And the RBC [4, 13]?
A: The RBC was 8.18 ± 1.17 x106 cells/µL.

Q: What about the WBC [4, 13] of the same compound?
A: The WBC was 7.52 ± 5.51 x103 cells/µL.

Q: And the HGB ([4]; PO 300 mg/kg/day 7 days, Day 7)?
A: Its HGB is 20 ± 1.4 g/dL.

Q: And the PLT ([4]; PO 300 mg/kg/day 7 days, Day 7)?
A: The PLT was 956 ± 108 x103 cells/µL.

Q: And the RBC ([4]; PO 300 mg/kg/day 7 days, Day 7)?
A: Its RBC is 7.15 ± 0.4 x106 cells/µL.

Q: And the WBC ([4]; PO 300 mg/kg/day 7 days, Day 7)?
A: Its WBC is 8.19 ± 2.89 x103 cells/µL.

Q: And the HGB [4, 14]?
A: Its HGB is 24.1 ± 0.4 g/dL.

Q: And the PLT [4, 14]?
A: The PLT was 1128 ± 236 x103 cells/µL.

Q: What about the RBC [4, 14] of the same compound?
A: The RBC was 8.91 ± 0.17 x106 cells/µL.

Q: And the WBC [4, 14]?
A: The WBC was 9.56 ± 1.57 x103 cells/µL.

Q: And the HGB ([4]; PO 600 mg/kg/day 7 days, Day 7)?
A: The HGB was 20.6 ± 1.9 g/dL.

Q: And the PLT ([4]; PO 600 mg/kg/day 7 days, Day 7)?
A: The PLT was 986 ± 252 x103 cells/µL.

Q: What about the RBC ([4]; PO 600 mg/kg/day 7 days, Day 7) of the same compound?
A: The RBC was 7.51 ± 0.53 x106 cells/µL.

Q: And the WBC ([4]; PO 600 mg/kg/day 7 days, Day 7)?
A: The WBC was 8.68 ± 4.58 x103 cells/µL.

Q: And the HGB [4, 15]?
A: Its HGB is 21.6 ± 0.8 g/dL.

Q: What about the PLT [4, 15] of the same compound?
A: The PLT was 1022 ± 446 x103 cells/µL.

Q: And the RBC [4, 15]?
A: The RBC was 7.87 ± 0.45 x106 cells/µL.

Q: And the WBC [4, 15]?
A: Its WBC is 5.27 ± 2.39 x103 cells/µL.

Q: And the HGB [4, 16]?
A: The HGB was 20.7 ± 1.3 g/dL.

Q: What about the PLT [4, 16] of the same compound?
A: Its PLT is 892 ± 66 x103 cells/µL.

Q: And the RBC [4, 16]?
A: Its RBC is 7.52 ± 0.31 x106 cells/µL.

Q: And the WBC [4, 16]?
A: The WBC was 7.48 ± 2.72 x103 cells/µL.

Q: And the HGB [4, 17]?
A: The HGB was 21.6 ± 1 g/dL.

Q: What about the PLT [4, 17] of the same compound?
A: Its PLT is 1140 ± 222 x103 cells/µL.

Q: What about the RBC [4, 17] of the same compound?
A: Its RBC is 8.33 ± 0.35 x106 cells/µL.

Q: What about the WBC [4, 17] of the same compound?
A: Its WBC is 8.28 ± 0.31 x103 cells/µL.
